Measurements: ChEMBL document CHEMBL1143093 (Bioorg Med Chem Lett, 2008)

What was measured:
[1] = target: Sodium-dependent noradrenaline transporter (Homo sapiens, UniProt P23975); experiment: Inhibition of norepinephrine uptake at human NET expressed in HEK293 cells; assay type: cell-based
[2] = target: Sodium-dependent dopamine transporter (Homo sapiens, UniProt Q01959); experiment: Inhibition of dopamine uptake at human DAT expressed in HEK293 cells; assay type: cell-based
[3] = Metabolic stability in human liver microsomes assessed as systemic clearance; assay type: ADME, Microsome
[4] = Metabolic stability in rat liver microsomes assessed as systemic clearance; assay type: ADME, Microsome
[5] = Apparent permeability across human Caco-2 cells; assay type: ADME, cell-based
[6] = target: Sodium-dependent serotonin transporter (Homo sapiens, UniProt P31645)
Chain of Sodium-dependent serotonin transporter (P31645 whole entry): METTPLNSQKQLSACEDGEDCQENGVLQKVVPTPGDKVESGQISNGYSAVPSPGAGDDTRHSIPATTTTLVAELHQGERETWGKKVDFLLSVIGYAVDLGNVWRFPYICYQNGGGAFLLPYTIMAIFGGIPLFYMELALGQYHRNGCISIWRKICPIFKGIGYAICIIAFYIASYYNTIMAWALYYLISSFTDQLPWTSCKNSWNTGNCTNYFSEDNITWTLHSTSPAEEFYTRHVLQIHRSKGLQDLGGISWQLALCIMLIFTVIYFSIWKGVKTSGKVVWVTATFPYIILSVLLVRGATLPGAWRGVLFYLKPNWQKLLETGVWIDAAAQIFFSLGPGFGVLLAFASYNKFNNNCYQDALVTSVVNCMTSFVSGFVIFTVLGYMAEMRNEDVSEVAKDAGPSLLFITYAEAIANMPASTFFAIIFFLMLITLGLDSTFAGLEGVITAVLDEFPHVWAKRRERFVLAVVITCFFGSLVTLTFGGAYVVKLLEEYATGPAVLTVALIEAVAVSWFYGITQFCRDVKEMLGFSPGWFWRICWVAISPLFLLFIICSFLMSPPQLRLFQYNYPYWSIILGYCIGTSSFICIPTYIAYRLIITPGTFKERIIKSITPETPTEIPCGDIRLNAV
Description: Inhibition of serotonin uptake at human SERT expressed in HEK293 cells

[7] = Cmax in rat at 30 mg/kg, po; assay type: ADME, organism-based; parameters: dose 30 mg/kg, route oral; conditions: in vivo
[8] = Tmax in rat at 30 mg/kg, po; assay type: ADME, organism-based; parameters: dose 30 mg/kg, route oral; conditions: in vivo
[9] = AUC in rat at 30 mg/kg, po; assay type: ADME, organism-based; parameters: dose 30 mg/kg, route oral; conditions: plasma
[10] = Drug level in rat brain at 30 mg/kg, po at 1 hr; assay type: ADME, organism-based; parameters: dose 30 mg/kg, route oral; conditions: read-out: Drug uptake
[11] = Drug level in rat brain at 30 mg/kg, po at 4 hrs; assay type: ADME, organism-based; parameters: dose 30 mg/kg, route oral; conditions: read-out: Drug uptake
[12] = Ratio of drug level in brain to plasma in rat at 30 mg/kg, po after 1 hr; assay type: ADME, organism-based; parameters: dose 30 mg/kg, route oral
[13] = Ratio of drug level in brain to plasma in rat at 30 mg/kg, po after 4 hrs; assay type: ADME, organism-based; parameters: dose 30 mg/kg, route oral
[14] = Lipophilicity, log P of the compound; assay type: physicochemical; conditions: octanol/water
[15] = Dissociation constant, pKa of the compound; assay type: physicochemical
[16] = Distribution coefficient, log D of the compound; assay type: physicochemical; conditions: octanol/water
[17] = Cmax in rat at 10 mg/kg, po; assay type: ADME, organism-based; parameters: dose 10 mg/kg, route oral; conditions: in vivo
[18] = Tmax in rat at 10 mg/kg, po; assay type: ADME, organism-based; parameters: dose 10 mg/kg, route oral; conditions: in vivo
[19] = AUC in rat at 10 mg/kg, po; assay type: ADME, organism-based; parameters: dose 10 mg/kg, route oral; conditions: plasma
[20] = Drug level in rat brain at 10 mg/kg, po at 1 hr; assay type: ADME, organism-based; parameters: dose 10 mg/kg, route oral; conditions: read-out: Drug uptake
[21] = Drug level in rat brain at 10 mg/kg, po at 4 hrs; assay type: ADME, organism-based; parameters: dose 10 mg/kg, route oral; conditions: read-out: Drug uptake
[22] = Ratio of drug level in brain to plasma in rat at 10 mg/kg, po after 1 hr
[23] = Ratio of drug level in brain to plasma in rat at 10 mg/kg, po after 4 hrs

Chain of Sodium-dependent noradrenaline transporter (P23975 whole entry): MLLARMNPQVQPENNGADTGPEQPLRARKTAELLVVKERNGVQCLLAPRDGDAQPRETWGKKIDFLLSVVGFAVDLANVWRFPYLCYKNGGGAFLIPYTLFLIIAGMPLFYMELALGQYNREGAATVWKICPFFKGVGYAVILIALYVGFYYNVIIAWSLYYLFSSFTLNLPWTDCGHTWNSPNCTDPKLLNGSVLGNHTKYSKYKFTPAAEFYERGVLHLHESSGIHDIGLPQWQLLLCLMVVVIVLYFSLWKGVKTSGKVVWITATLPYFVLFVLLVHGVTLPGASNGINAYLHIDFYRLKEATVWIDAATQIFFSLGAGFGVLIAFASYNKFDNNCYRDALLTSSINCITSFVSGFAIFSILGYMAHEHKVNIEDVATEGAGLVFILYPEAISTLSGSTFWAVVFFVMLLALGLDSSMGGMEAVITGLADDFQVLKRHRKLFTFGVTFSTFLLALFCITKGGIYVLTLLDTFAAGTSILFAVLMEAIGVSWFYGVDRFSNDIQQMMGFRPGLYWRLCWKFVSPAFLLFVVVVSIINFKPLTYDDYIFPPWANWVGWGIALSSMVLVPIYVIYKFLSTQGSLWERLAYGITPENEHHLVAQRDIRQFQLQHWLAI
Chain of Sodium-dependent dopamine transporter (Q01959 whole entry): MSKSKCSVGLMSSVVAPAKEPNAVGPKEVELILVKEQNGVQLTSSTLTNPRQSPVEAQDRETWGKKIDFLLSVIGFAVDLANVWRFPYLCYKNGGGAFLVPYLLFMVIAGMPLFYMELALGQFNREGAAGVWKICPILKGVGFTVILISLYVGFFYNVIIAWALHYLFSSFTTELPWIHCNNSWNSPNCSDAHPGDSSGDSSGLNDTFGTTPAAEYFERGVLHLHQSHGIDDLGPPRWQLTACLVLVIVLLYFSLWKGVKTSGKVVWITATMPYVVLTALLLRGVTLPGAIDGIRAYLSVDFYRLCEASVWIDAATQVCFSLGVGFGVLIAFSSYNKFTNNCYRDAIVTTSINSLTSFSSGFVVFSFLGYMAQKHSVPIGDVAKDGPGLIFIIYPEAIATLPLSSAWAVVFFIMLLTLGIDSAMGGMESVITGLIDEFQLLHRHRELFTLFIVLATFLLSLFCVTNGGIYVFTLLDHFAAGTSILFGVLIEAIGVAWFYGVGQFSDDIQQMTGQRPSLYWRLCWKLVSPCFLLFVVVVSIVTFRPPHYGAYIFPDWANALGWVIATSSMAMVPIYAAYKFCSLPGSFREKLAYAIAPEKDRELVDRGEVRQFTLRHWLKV

Structure (SMILES)	IC50 [1] [nM]	IC50 [2] [nM]	CLhep predicted [3] [mL/min/kg]	CLhep predicted [4] [mL/min/kg]	Papp [5] [×10⁻⁶ cm/s]	IC50 [6] [nM]	also measured
C=CCN(C(=O)[C@@]1(c2ccsc2)C[C@H]1CN)C1CC1	8.7	> 10000	< 2.6	42	5.3	26	–
C=CCN(CCOC)C(=O)[C@@]1(c2ccsc2)C[C@H]1CN	20	> 10000	< 2.6	52	2.4	47	–
C=CCN(CC)C(=O)[C@@]1(c2ccsc2)C[C@H]1CN	5.6	> 10000	6.8	57	6.4	140	Cmax [7]: 201 ng/mL; Tmax [8]: 30 min; AUC [9]: 502 ng·h/mL; concentration at 1 h [10]: 39 ng/g; concentration at 4 h [11]: 15 ng/g; Kp at 1 h [12]: 0.3; Kp at 4 h [13]: 0.4; logP [14]: 1.5; pKa [15]: 9.5; logD [16]: 0.1
CCN(CC)C(=O)[C@@]1(c2ccsc2)C[C@H]1CN	49	> 10000	7.1	34	4.7	830	–
CCN(CC)C(=O)[C@]1(c2ccccc2)C[C@@H]1CN	–	–	< 2.6	18	–	–	–
CCN(CC)C(=O)[C@@]1(c2cc3cc(F)ccc3s2)C[C@H]1CN	150	> 10000	–	–	–	290	–
CCN(CC)C(=O)[C@@]1(c2ccsc2)C[C@H]1CNC	3700	> 10000	–	–	–	–	–
CCN(CC)C(=O)[C@@]1(c2ccsc2)C[C@H]1CN(C)C	> 10000	> 10000	–	–	–	> 10000	–
CCN(CC)C(=O)[C@@]1(c2cc3ccccc3s2)C[C@H]1CN	65	2400	–	–	–	620	–
C=CCN(C)C(=O)[C@@]1(c2ccsc2)C[C@H]1CN	100	> 10000	–	–	–	60	–
CCN(CC)C(=O)[C@@]1(c2csc3ccccc23)C[C@H]1CN	170	> 10000	–	–	–	3100	–
COCCN(C)C(=O)[C@@]1(c2ccsc2)C[C@H]1CN	1100	> 10000	–	–	–	590	–
CCN(CC)C(=O)[C@@]1(c2ccccn2)C[C@H]1CN	1500	> 10000	–	–	–	3500	–
CCN(CC)C(=O)[C@@]1(c2ccc(Cl)s2)C[C@H]1CN	40	> 10000	–	–	–	520	–
C#CCN(CCOC)C(=O)[C@@]1(c2ccsc2)C[C@H]1CN	64	> 10000	< 2.6	18	3.2	47	–
NC[C@@H]1C[C@@]1(C(=O)N1CCc2ccccc2C1)c1ccsc1	8.3	> 10000	–	–	–	320	–
CCN(CC)C(=O)[C@@]1(c2nc3ccccc3s2)C[C@H]1CN	2200	> 10000	–	–	–	9600	–

Structure (SMILES)	IC50 [1] [nM]	IC50 [2] [nM]	CLhep predicted [3] [mL/min/kg]	CLhep predicted [4] [mL/min/kg]	Papp [5] [×10⁻⁶ cm/s]	IC50 [6] [nM]	also measured
C=C(F)CN(CCOC)C(=O)[C@@]1(c2ccsc2)C[C@H]1CN	3.9	> 10000	< 2.6	54	3.4	40	–
C#CCN(CC#C)C(=O)[C@@]1(c2ccsc2)C[C@H]1CN	8.2	> 10000	< 2.6	42	16.4	84	–
C#CCN(CC=C)C(=O)[C@@]1(c2ccsc2)C[C@H]1CN	2.8	> 10000	< 2.6	44	9.6	71	–
NC[C@@H]1C[C@@]1(C(=O)N1C=CCCC1)c1ccsc1	200	> 10000	–	–	–	1800	–
NC[C@@H]1C[C@@]1(C(=O)N1C=COc2ccccc21)c1ccsc1	12	> 10000	13	67	20	340	–
CCN(CC)C(=O)[C@@]1(c2cc(Cl)c(Cl)s2)C[C@H]1CN	560	> 10000	–	–	–	2200	–
CCN(CC)C(=O)[C@@]1(c2cccs2)C[C@H]1CN	76	> 10000	–	–	–	520	–
C#CCN(C)C(=O)[C@@]1(c2ccsc2)C[C@H]1CN	110	> 10000	–	–	–	34	–
CCN(CC)C(=O)[C@@]1(c2ccccc2)C[C@H]1CN [LEVOMILNACIPRAN]	–	–	–	24	–	–	Cmax [17]: 232 ng/mL; Tmax [18]: 18 min; AUC [19]: 566 ng·h/mL; concentration at 1 h [20]: 103 ng/g; concentration at 4 h [21]: 55 ng/g; Kp at 1 h [22]: 0.42; Kp at 4 h [23]: 0.86; pKa [15]: 9.6
CCN(CC)C(=O)[C@@]1(c2sc(Cl)c(Cl)c2Cl)C[C@H]1CN	270	> 10000	–	–	–	2000	–
C=CCN(CC=C)C(=O)[C@@]1(c2ccsc2)C[C@H]1CN	2.7	8300	4.7	59	9.5	76	–
NC[C@@H]1C[C@@]1(C(=O)N1CCCc2ccccc21)c1ccsc1	20	> 10000	–	–	–	420	–
NC[C@@H]1C[C@@]1(C(=O)N1Cc2ccccc2C1)c1ccsc1	37	6900	10	66	4.7	–	–
CCN(CC)C(=O)[C@@]1(c2ccc(Br)s2)C[C@H]1CN	29	6300	–	–	–	350	–
C=C(F)CN(C)C(=O)[C@@]1(c2ccsc2)C[C@H]1CN	44	> 10000	< 2.6	32	13.8	60	–
CCN(CC)C(=O)[C@@]1(c2cccnc2)C[C@H]1CN	1500	> 10000	–	–	–	4000	–
